Data on three substances can be found in patent US20250177557A1, “METHODS OF PRODUCING MICROBUBBLE DRUG CONJUGATES, VIRAL GENE THERAPY MICROBUBBLE CONJUGATES AND TARGETED MICROBUBBLES” (priority 2022, published 2025).

For data set [1] the following is noted: MR guided focused ultrasound, one hemisphere sonicated. The procedure: AAV2-GFP MDCs were injected into healthy rodents and FUS sonications used to open the BBB in the two brain regions affected by Parkinson's disease, the striatum (ST) and substantia nigra (SN). MR contrast agent gadolinium was co-injected and MR imaging performed to confirm BBB opening in the two regions.
CDNF protein neurotrophic drug was conjugated to MDCs and delivered to the SN and ST in this manner. Only one hemisphere was sonicated so the animals acted as their own control.

The subject of the next data set is human SHSY-5Y cells. In words: Neuroprotection of differentiated SHSY-5Y cells against parkinsonian neurotoxins (CFDA cell viability). The data set is classed as cell-based. How it is done:
Neuroprotection was tested in the well-established neuronal model of human SHSY-5Y cells (Lopes, F. M.,. et al. (2010) Brain Res. 1337, 85-94) treated with parkinsonian neurotoxins. Human SHSY-5Y cells were grown in 24 well dishes and differentiated into neuron-like cells by treatment with 10 μM retinoic acid (RA) for 7 days (FIG. 8A).
Cell viability was quantified by the CFDA assay as described previously (Sandhu, J. K., et al. (2009) Neurobiol. Dis. 33, 405-414.).
Recombinant human GDNF at 50 ng/ml was used as a positive control.

The conditions of data set [2]: brain mets patients; cited from earlier work.
The conditions of data set [3]: patients; cited from earlier work.

“CDNF-MDCs: Cerebral Dopamine Neurotrophic factor protein conjugated to microbubbles”: the “CDNF concentration delivered to ST and SN, sonicated vs. non-sonicated hemisphere (ELISA tissue analysis)” value in data set [1] is “significant CDNF concentration delivered to the sonicated hemispheres”. Besides, in the data set on human SHSY-5Y cells (1.0 μM thapsigargin ~16 h, pre-treatment, rhGDNF 50 ng/ml, CDNF-MDCs 25-250 ng/ml), the “Neuroprotection against thapsigargin (cell viability)” value is on record as “completely protected”. In addition, in the data set with human SHSY-5Y cells (1.0 mM MPP+ ~16 h, pre-treatment, rhGDNF 50 ng/ml, CDNF-MDCs 25-250 ng/ml), the “Neuroprotection against MPP+ (cell viability)” value is given as “completely protected”. Further, the “Concentrations at which maximum neuroprotection was reached” value with human SHSY-5Y cells (MPP+ or thapsigargin) lay within 25 to 250 ng/mL.
Consider Keytruda: checkpoint inhibitor antibody, for which the “Response, share of patients” value in data set [2] was “about one third”.
Regarding ipilimumab, the “Incidence of grade 3 or -4 treatment-related AEs” value in data set [3] is 28%.
